The target in the assay is T1, IDE (Homo sapiens, UniProt P14735).
T1 construct: made in house; host or cells: E. coli BL21
T1 sequence (P14735 1-1019): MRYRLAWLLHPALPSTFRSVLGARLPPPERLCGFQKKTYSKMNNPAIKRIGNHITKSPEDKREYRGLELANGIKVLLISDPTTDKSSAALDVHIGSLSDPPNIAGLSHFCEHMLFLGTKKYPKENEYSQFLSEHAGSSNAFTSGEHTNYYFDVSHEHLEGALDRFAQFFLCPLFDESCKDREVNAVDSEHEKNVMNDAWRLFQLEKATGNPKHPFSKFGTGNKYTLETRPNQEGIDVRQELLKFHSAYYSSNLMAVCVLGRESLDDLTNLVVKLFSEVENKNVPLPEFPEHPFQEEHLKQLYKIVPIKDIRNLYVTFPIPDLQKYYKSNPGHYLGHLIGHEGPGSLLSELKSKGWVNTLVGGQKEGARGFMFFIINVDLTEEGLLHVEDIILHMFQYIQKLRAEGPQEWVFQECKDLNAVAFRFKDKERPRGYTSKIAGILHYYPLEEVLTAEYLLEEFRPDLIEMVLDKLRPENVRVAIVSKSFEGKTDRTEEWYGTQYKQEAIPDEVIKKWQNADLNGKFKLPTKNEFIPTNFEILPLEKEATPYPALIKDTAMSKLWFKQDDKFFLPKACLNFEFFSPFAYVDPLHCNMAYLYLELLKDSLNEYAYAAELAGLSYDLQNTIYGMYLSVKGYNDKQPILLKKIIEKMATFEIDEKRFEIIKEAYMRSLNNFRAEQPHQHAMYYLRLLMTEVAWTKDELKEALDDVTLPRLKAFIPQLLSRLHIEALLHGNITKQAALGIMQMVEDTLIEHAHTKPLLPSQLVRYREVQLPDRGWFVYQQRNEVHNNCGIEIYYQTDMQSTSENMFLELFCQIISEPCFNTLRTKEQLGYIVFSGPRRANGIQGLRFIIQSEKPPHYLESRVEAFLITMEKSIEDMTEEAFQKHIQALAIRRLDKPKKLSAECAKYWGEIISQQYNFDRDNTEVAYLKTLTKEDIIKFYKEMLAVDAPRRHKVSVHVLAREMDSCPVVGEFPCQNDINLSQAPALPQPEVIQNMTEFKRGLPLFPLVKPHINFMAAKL
Put plainly: Enzymatic competition assay with bradykinin. Format: biochemical. The following applies: bradykinin 2.1, 4.2 and 8.4 mM; varying D10 (0–50 µM). The text has this:
Since D10 has been found as the strongest activator of IDE towards the proteolysis of insulin, we analyzed the binding site of the compound D10 for the further analysis. According to the computational results, D10 binds to Gln363 at the IDE exosite and His332 (Fig. 1D). We carried out site-directed mutagenesis by replacing these amino acids into Ala in order to verify that D10 indeed binds to this region via these amino acids. We first mutated Gln363 to Ala and then expressed and purified mutant protein through nickel resin. The effect of D10 on the proteolytic activity of mutant IDE (Gln363Ala) was measured towards FITC-insulin-mAb degradation. […] The activation was about 49-fold in the presence of D10 with wild type IDE (Fig. 2B). Although mutant IDE activity was less responsive to D10 compound compared to wild type IDE, it appeared as if D10 were interacting with IDE through […] and could enhance the activity of mutant IDE. Therefore, we generated a double mutant IDE (Gln363Ala, His332Ala) in order to eliminate the binding of D10 to the exosite region completely. […]
The effect of the bradykinin on the clearance of insulin was measured in the presence of compound D10. […] The fluorescence increase was monitored by using Fluoroskan Ascent FL microplate reader (Thermo).

Consider `Cc1nn(-c2ccccc2)c2nc(-c3cccc([N+](=O)[O-])c3)n3c4ccccc4nc3c2c1=O` [Compound D10], for which the “decrease of insulin degradation in presence of compound when bradykinin is added” value is reported as “about 50%”.

The values are drawn from publication PMC3280214, “Structure Based Discovery of Small Molecules to Regulate the Activity of Human Insulin Degrading Enzyme” (PLoS ONE, 2012).
